PubChem BioAssay (NCI)
“And” between values parts separate entries of the source, which are not always exact repeats. Equal entries are not always repeated.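 Cells were grown in 96-well plates and exposed to each compound for 48 hours at five concentrations; endpoints were interpolated linearly between bracketing concentrations, or set to the highest concentration if not reached. GI50 is the concentration that inhibits growth by half. TGI denotes the concentration required for complete inhibition of growth.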

What was measured:
Test in all cases: NCI tumour cell line growth inhibition, 48 h
[1] = tested on: UACC-257 melanoma
[2] = tested on: CAKI-1 renal
[3] = tested on: MCF7 breast
[4] = tested on: NCI-H23 lung
[5] = tested on: M19-MEL melanoma
[6] = tested on: A498 renal
[7] = tested on: UACC-62 melanoma
[8] = tested on: NCI/ADR-RES ovarian
[9] = tested on: HOP-18 NSCLC
[10] = tested on: SK-MEL-5 melanoma
[11] = tested on: DMS 273 small cell lung
[12] = tested on: KM20L2 colon
[13] = tested on: SK-OV-3 ovarian
[14] = tested on: DLD-1 colon
[15] = tested on: NCI-H460 lung
[16] = tested on: A549 NSCLC
[17] = tested on: K-562 leukemia
[18] = tested on: LOX IMVI melanoma
[19] = tested on: HCT-15 colon
[20] = tested on: SN12K1 renal
[21] = tested on: XF 498 CNS
[22] = tested on: RXF 393 renal
[23] = tested on: HL-60(TB) leukemia
[24] = tested on: P388/ADR leukemia
[25] = tested on: NCI-H522 lung
[26] = tested on: DMS 114 small cell lung
[27] = tested on: SNB-78 CNS
[28] = tested on: OVCAR-3 ovarian
[29] = tested on: OVCAR-5 ovarian
[30] = tested on: U251 CNS
[31] = tested on: P388 leukemia
[32] = tested on: MALME-3M melanoma
[33] = tested on: SNB-75 CNS
[34] = tested on: SK-MEL-2 melanoma
[35] = tested on: SW-620 colon
[36] = tested on: OVCAR-4 ovarian
[37] = tested on: SF-295 CNS
[38] = tested on: SK-MEL-28 melanoma
[39] = tested on: COLO 205 colon
[40] = tested on: NCI-H226 lung
[41] = tested on: SNB-19 CNS
[42] = tested on: HOP-62 NSCLC
[43] = tested on: CCRF-CEM leukemia
[44] = tested on: HT29 colon
[45] = tested on: SF-539 CNS
[46] = tested on: HCC-2998 colon
[47] = tested on: SN12C renal
[48] = tested on: IGROV1 ovarian
[49] = tested on: OVCAR-8 ovarian
[50] = tested on: KM12 colon
[51] = tested on: HCT-116 colon
[52] = tested on: MOLT-4 leukemia
[53] = tested on: SF-268 CNS
[54] = tested on: HOP-92 NSCLC
[55] = tested on: EKVX NSCLC
[56] = tested on: LXFL 529 NSCLC
[57] = tested on: MDA-N
[58] = tested on: PC-3 prostate
[59] = tested on: RPMI-8226 leukemia
[60] = tested on: BT-549 breast
[61] = tested on: MDA-MB-435
[62] = tested on: T-47D breast
[63] = tested on: RXF-631 renal
[64] = tested on: DU-145 prostate
[65] = tested on: 786-0 renal
[66] = tested on: ACHN renal
[67] = tested on: MDA-MB-231 breast
[68] = tested on: TK-10 renal
[69] = tested on: M14 melanoma

Structure (SMILES): CCOCC(=O)N(C)c1cccc2c3c(n(C)c12)CCCCC3
- TGI [1]: > 100000 nM
- TGI [2]: > 100000 nM
- TGI [3]: > 100000 nM
- TGI [4]: > 100000 nM
- TGI [5]: > 100000 nM
- TGI [6]: > 100000 nM
- TGI [7]: > 100000 nM
- TGI [8]: > 100000 nM
- TGI [9]: > 20900 nM
- TGI [10]: > 100000 nM
- TGI [11]: > 31600 nM
- TGI [12]: > 100000 nM
- TGI [13]: > 100000 nM
- TGI [14]: > 100000 nM
- TGI [15]: > 100000 nM
- TGI [16]: > 100000 nM
- TGI [17]: > 100000 nM
- TGI [18]: > 100000 nM
- TGI [19]: > 100000 nM
- TGI [20]: > 100000 nM
- TGI [21]: > 100000 nM
- TGI [22]: > 100000 nM
- TGI [23]: > 100000 nM
- TGI [24]: > 100000 nM
- TGI [25]: > 100000 nM
- TGI [26]: > 100000 nM
- TGI [27]: > 100000 nM
- TGI [28]: > 100000 nM
- TGI [29]: > 100000 nM
- TGI [30]: > 100000 nM
- TGI [31]: > 100000 nM
- TGI [32]: > 100000 nM
- TGI [33]: > 100000 nM
- TGI [34]: > 100000 nM
- TGI [35]: > 100000 nM
- TGI [36]: > 100000 nM
- TGI [37]: > 100000 nM
- TGI [38]: > 100000 nM
- TGI [39]: > 100000 nM
- TGI [40]: > 100000 nM
- TGI [41]: > 100000 nM
- TGI [42]: > 100000 nM
- TGI [43]: > 100000 nM
- TGI [44]: > 100000 nM
- TGI [45]: > 100000 nM
- TGI [46]: > 100000 nM
- TGI [47]: > 100000 nM
- TGI [48]: > 100000 nM
- TGI [49]: > 100000 nM
- TGI [50]: > 100000 nM
- TGI [51]: > 100000 nM
- TGI [52]: > 100000 nM
- TGI [53]: > 100000 nM
- TGI [54]: > 100000 nM
- TGI [55]: > 100000 nM

Structure (SMILES): CC(=O)OC(C)(C)/C=C/C(=O)[C@](C)(O)[C@H]1[C@H](O)C[C@@]2(C)[C@@H]3CC=C4[C@@H](C=C(O)C(=O)C4(C)C)[C@]3(C)C(=O)C[C@]12C
- TGI [2]: 44 nM [middle of 4 runs]
- TGI [3]: 3600 nM and 1770 nM and 1860 nM
- GI50 [56]: 18 nM
- TGI [56]: 305 nM and 385 nM
- TGI [57]: 1570 nM
- TGI [5]: 4200 nM and 3010 nM and 3430 nM
- TGI [7]: 1560 nM and 806 nM and 1170 nM
- TGI [8]: 5450 nM and 6120 nM and 5390 nM
- GI50 [58]: 40.8 nM
- TGI [58]: 1480 nM
- TGI [11]: 203 nM and 54.4 nM and 100 nM
- TGI [14]: 4250 nM and 4430 nM and 2190 nM
- TGI [15]: 1810 nM and 1680 nM and 1490 nM
- TGI [59]: 771 nM [middle of 4 runs]
- TGI [16]: 6510 nM and 1230 nM and 2650 nM
- TGI [17]: 4970 nM and 9170 nM and 14000 nM
- TGI [60]: 84.6 nM
- GI50 [20]: 15.5 nM
- TGI [20]: 287 nM and 60.4 nM
- TGI [22]: 46.1 nM [middle of 4 runs]
- GI50 [24]: 175 nM
- TGI [24]: 3040 nM and 2000 nM
- TGI [25]: 196 nM [middle of 4 runs]
- GI50 [61]: 40.4 nM
- TGI [61]: 194 nM
- TGI [29]: 6670 nM and 4020 nM and 1090 nM
- GI50 [31]: 89.5 nM
- TGI [31]: 2320 nM and 14300 nM
- TGI [62]: 1460 nM
- GI50 [63]: 18 nM
- TGI [63]: 434 nM and 152 nM
- GI50 [64]: 51.4 nM
- TGI [64]: 99.7 nM and 689 nM
- TGI [33]: 42.7 nM [middle of 4 runs]
- TGI [34]: 64.9 nM [middle of 4 runs]
- TGI [35]: 7040 nM and 1260 nM and 3480 nM
- GI50 [65]: 15.4 nM
- GI50 [66]: 30.6 nM
- TGI [66]: 250 nM and 79.4 nM
- TGI [40]: 93.7 nM [middle of 4 runs]
- TGI [67]: 3390 nM
- TGI [68]: 150 nM and 204 nM
- TGI [46]: 1560 nM and 542 nM and 962 nM
- TGI [47]: 3340 nM and 1520 nM and 938 nM
- TGI [49]: 5350 nM and 2140 nM and 3280 nM
- TGI [50]: 5610 nM and 3460 nM and 4830 nM
- TGI [51]: 1.39 µM [middle of 4 runs]
- GI50 [69]: 19.3 nM
- TGI [69]: 722 nM and 1010 nM
